Experimental data from patent US20050208290A1, “Thick radiation sensitive devices” (priority 2003, published 2005).

Experiment: preliminary toxicity study
Conditions: no details given

SMILES: CCCCCCNC(=O)OCC#CC#CCOC(=O)NCCCCCC [compound 166, 2,4-hexadiyn-1,6-bis(n-hexylurethane)]
- toxicity: nontoxic
